Measured values published in the Kinase Knowledgebase extract (Sharma et al. 2016).

Target: EGFR (human) (UniProt P00533)
Conditions: kb

EGFR (human), sequence (P00533 whole entry, looked up): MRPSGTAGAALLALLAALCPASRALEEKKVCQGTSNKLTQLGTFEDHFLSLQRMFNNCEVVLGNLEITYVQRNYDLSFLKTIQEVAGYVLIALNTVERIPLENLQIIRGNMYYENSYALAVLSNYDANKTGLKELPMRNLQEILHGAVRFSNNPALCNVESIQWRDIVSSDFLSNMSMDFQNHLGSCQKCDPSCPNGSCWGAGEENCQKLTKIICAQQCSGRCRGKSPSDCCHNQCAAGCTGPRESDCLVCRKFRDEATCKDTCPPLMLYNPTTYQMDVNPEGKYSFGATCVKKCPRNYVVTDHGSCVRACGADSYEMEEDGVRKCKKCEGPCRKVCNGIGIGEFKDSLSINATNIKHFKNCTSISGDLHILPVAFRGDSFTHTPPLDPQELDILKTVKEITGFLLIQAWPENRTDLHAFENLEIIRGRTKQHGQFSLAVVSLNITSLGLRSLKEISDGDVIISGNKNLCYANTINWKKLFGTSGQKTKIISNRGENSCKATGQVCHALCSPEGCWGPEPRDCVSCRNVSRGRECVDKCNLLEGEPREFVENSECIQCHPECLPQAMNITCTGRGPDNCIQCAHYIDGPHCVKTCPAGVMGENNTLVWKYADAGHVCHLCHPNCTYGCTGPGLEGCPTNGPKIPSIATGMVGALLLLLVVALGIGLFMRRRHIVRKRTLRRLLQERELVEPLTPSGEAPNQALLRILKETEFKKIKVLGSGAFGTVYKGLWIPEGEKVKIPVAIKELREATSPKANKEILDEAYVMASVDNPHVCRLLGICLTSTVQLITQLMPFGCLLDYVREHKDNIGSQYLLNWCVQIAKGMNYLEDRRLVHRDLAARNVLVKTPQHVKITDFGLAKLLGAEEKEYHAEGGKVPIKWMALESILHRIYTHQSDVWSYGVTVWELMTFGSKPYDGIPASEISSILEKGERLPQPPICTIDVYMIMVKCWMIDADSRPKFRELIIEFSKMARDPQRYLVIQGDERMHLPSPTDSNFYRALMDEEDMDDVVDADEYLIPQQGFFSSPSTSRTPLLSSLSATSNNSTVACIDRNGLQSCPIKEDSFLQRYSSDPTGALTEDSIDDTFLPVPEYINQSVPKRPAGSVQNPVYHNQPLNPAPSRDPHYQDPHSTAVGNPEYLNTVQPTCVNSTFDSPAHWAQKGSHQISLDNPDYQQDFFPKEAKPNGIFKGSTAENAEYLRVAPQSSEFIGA

IC50 [µM] | Structure (SMILES)
0.138 | COc1cc(OC[C@H]2CCCN2C(=O)CN(C)C)c2c(Nc3ccc(F)c(Cl)c3)ncnc2c1
0.128 | O=C(CO)N1CCC[C@@H]1COc1cc(OCCO)cc2ncnc(Nc3ccc(F)c(Cl)c3)c12
0.099 | CCOCCOc1cc(OC[C@H]2CCCN2C(=O)CO)c2c(Nc3ccc(F)c(Cl)c3)ncnc2c1
0.141 | COc1cc(OC[C@@H]2CCCN2C(=O)CN(C)C)c2c(Nc3ccc(F)c(Cl)c3)ncnc2c1
0.112 | COc1cc(OC[C@@H]2C[C@H](O)CN2C(=O)CN(C)C)c2c(Nc3ccc(F)c(Cl)c3)ncnc2c1
0.075 | COc1cc(OC[C@H]2C[C@H](O)CN2C(C)=O)c2c(Nc3ccc(F)c(Cl)c3)ncnc2c1
0.091 | COc1cc(OC[C@H]2CCCN2C(=O)CO)c2c(Nc3ccc(F)c(Cl)c3)ncnc2c1
0.288 | COCC(=O)N1C[C@@H](O)C[C@@H]1COc1cc(OC)cc2ncnc(Nc3ccc(F)c(Cl)c3)c12
0.028 | COc1cc(OC[C@H]2CCCN2C(C)=O)c2c(Nc3ccc(F)c(Cl)c3)ncnc2c1
0.156 | COc1cc(OC[C@@H]2C[C@@H](O)CN2C(=O)CO)c2c(Nc3ccc(F)c(Cl)c3)ncnc2c1
0.118 | COc1cc(OC[C@H]2C[C@@H](O)CN2C(=O)CO)c2c(Nc3ccc(F)c(Cl)c3)ncnc2c1
0.13 | COc1cc(OC[C@@H]2CCCN2C(=O)CN2CCCC2)c2c(Nc3ccc(F)c(Cl)c3)ncnc2c1
